# Measurements as given in publication PMC4038399, “Experimental validation of [sequence]^comb virtual ligand screening results for eight proteins yields novel nanomolar and micromolar binders” (Journal of Cheminformatics, 2014).
# Read-outs that look alike come from different tables or passages of the source.
# Experiments:
# [1] = molecular target: Nucleosome assembly protein 1 (NAP1) (Plasmodium knowlesi, UniProt A0A384KYS3); experiment: Thermal shift (thermal melt) assay, Sypro orange; assay type: binding, P. knowlesi; settings: for Kd: approximate, computed from the thermal shift, read-out: KD (Approx)
# Nucleosome assembly protein 1 (NAP1), sequence (A0A384KYS3 entry or part of it): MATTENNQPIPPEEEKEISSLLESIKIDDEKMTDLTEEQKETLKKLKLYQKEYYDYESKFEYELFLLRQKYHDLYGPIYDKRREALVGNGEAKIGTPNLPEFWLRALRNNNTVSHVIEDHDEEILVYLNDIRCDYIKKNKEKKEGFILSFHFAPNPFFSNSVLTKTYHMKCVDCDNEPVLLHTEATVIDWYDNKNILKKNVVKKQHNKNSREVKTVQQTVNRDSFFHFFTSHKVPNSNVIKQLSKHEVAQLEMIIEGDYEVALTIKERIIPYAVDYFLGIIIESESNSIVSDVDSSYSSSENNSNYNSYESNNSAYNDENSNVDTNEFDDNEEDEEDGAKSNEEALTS
# Experimental: (§1) High throughput thermal shift assays were carried out following established guidelines (Additional file 1: Table S1). Protein melting curves were obtained from samples aliquoted in 96-well plates using a RealPlex quantitative PCR instrument from Eppendorf (Eppendorf, NY, USA), with Sypro orange dye from Invitrogen as the fluorescent probe. A uniform final concentration of 5 X (supplied as a 5000 X stock solution) was used in all experiments. The dye was excited at 465 nm and emission recorded at 580 nm using the instrument’s filters. A heating ramp of 1°C/min from 25°C to 74°C was used, and one data point acquired for each degree increment. For standardization, different buffers and pH were checked. Thereafter, 100 mM HEPES pH 7.3 and 150 mM NaCl were used in all unfolding experiments. The volume of each reaction was 20 μl, and appropriate dye and protein controls were included. All experiments were done with a minimum of two replicates, with the mean value considered for further analysis. Several drugs/small molecules interact with Sypro orange and lead to aberrant signal enhancements. An additional control to rule out drug-dye interaction was carried out with all the constituents kept constant except for the protein of interest. The protein/protein-drug curves were reported after subtracting the respective dye alone/drug-dye curves.
# (§2) Each melting curve was assigned a quality score (Q), the ratio of the melting-associated increase in fluorescence (ΔFmelt) to the total fluorescence range (ΔFtotal). Q = 1 is a high-quality curve, while Q = 0 indicates no thermal transition. Though an arbitrary Q value cutoff was not applied to judge curve quality, the curves were manually curated with Q values reported. […] These were ignored (see Table 1).
# (§3) Subsequent to standardization, (see SI Methods), the validity of the top 1% of […]^comb’s predictions on the test set of eight diverse proteins was examined. To be conservative, we focused only on those protein/ligand pairs showing single sigmoidal thermal transition curves. The fit to Boltzmann’s equation (Eq. 1) was employed to estimate the melting temperature from the observed intensity, I.
# (§4) (4) I=Imin+Imax-Imin/1+e^Tm-T/a
# (§5) Imin and Imax are the minimum and maximum intensities; a denotes the slope of the curve at the transition midpoint temperate, Tm. To estimate thermodynamic parameters, both van’t Hoff and Gibbs-Helmholtz analyses were done. To estimate the approximate ligand-binding affinity at Tm, Eq. (2) from reference was used with slight modifications; ΔCp is ignored.
# (§6) (5) KLTm=exp-ΔH/R1/Tm-1/To/L
# (§7) KL(Tm) is the ligand association constant and [L] is the free ligand concentration at Tm ([LTm] ~ [L]total, when [L]total > > the total concentration of protein. KD is the inverse of KL(Tm).
# (§8) Thermal unfolding of the eight benchmark proteins was carried out in a 20 μl reaction mix with 100 mM HEPES pH 7.3, 150 mM NaCl, 5 X Sypro orange dye, 10 μM protein and 1 mM of all the predicted ligands.
# [2] = tested on: vancomycin-resistant E. faecium (ATCC700221) (VREF); experiment: Antimicrobial assay (MIC); assay type: cell-based
# Experimental: (§9) Antimicrobial and anti-cancer tests were performed as in [80].
# [3] = tested on: HCT-116 colon carcinoma cell line; experiment: Cytotoxic assay on cancer cell line; assay type: cell-based
# Experimental: as §9
# [4] = molecular target: Ubiquitin conjugating enzyme (UCE) (Plasmodium falciparum, UniProt Q8I607); experiment: Thermal shift (thermal melt) assay, Sypro orange; assay type: binding, P. falciparum; settings: for Kd: approximate, computed from the thermal shift; for ΔTm: thermal shift, 1 mM ligand, 10 μM protein
# Ubiquitin conjugating enzyme (UCE), sequence (Q8I607 1-147): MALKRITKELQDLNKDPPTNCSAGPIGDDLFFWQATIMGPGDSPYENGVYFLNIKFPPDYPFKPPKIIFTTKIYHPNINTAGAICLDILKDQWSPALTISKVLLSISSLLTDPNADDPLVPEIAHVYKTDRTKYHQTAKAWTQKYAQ
# Experimental: as §1, §2, §3, §4, §5, §6, §7, §8
# [5] = molecular target: Catalytic subunit of cAMP-dependent protein kinase (cDPK) (Homo sapiens, UniProt P17612); experiment: Thermal shift (thermal melt) assay, Sypro orange; assay type: binding, H. sapiens; settings: for Kd: approximate, computed from the thermal shift
# Experimental: as §1, §2, §3, §4, §5, §6, §7, §8
# [6] = molecular target: T1, 1000001: Carboxy-terminus phosphatase domain of protein tyrosine phosphatase (2NV5) (Mus musculus, UniProt Q64487); experiment: Thermal shift (thermal melt) assay, Sypro orange; assay type: binding, M. musculus; set-up: key to Q (quality score): Q = ΔFmelt/ΔFtotal; 1 = high-quality curve, 0 = no transition; settings: for ΔTm: in °C (unit assumed)
# T1 construct: The C-terminal phosphatase domain from R. norvegicus (PDB ID: 2NV5) (1000001); New York structural genomics consortium (gift)
# T1 sequence (Q64487 1331-1621): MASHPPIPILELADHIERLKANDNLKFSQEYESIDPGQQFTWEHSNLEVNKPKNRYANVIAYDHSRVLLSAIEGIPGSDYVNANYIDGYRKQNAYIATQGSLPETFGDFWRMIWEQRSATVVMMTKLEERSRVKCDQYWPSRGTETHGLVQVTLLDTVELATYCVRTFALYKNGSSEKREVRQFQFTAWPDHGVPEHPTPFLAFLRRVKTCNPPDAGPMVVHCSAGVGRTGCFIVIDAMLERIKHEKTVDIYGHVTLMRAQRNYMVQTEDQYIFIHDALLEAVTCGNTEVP
# Experimental: as §1, §2, §3, §4, §5, §6, §7, §8
# [7] = molecular target: T2, Tryptophanyl tRNA synthetase (TrpRS) (Homo sapiens, UniProt P23381); experiment: Thermal shift (thermal melt) assay, Sypro orange; assay type: binding, H. sapiens; settings: for ΔTm: in °C (unit assumed); for Q (quality score): ratio ΔFmelt/ΔFtotal
# T2 sequence (P23381 1-471): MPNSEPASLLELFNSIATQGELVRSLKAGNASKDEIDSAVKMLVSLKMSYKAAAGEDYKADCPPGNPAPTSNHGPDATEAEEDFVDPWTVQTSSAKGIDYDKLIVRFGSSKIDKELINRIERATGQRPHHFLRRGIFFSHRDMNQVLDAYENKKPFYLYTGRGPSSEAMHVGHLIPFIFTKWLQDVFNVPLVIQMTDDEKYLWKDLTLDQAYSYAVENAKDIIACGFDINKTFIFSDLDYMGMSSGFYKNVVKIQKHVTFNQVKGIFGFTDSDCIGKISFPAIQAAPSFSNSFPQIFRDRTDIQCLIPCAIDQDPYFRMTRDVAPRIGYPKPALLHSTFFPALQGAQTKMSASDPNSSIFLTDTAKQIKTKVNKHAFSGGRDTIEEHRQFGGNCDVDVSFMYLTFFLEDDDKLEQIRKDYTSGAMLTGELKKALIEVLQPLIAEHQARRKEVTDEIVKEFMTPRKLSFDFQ
# Experimental: as §1, with “The dye was excited at 465 nm and emission recorded at 580 nm using the instrument’s filters. A heating ramp of 1°C/min from 25°C to 74°C was used, and one data point acquired for each degree increment.” left out
# (§10) Each melting curve was assigned a quality score (Q), the ratio of the melting-associated increase in fluorescence (ΔFmelt) to the total fluorescence range (ΔFtotal). Q = 1 is a high-quality curve, while Q = 0 indicates no thermal transition. Though an arbitrary Q value cutoff was not applied to judge curve quality, the curves were manually curated with Q values reported.
# as §3, §4, §5, §6, §7, §8
# [8] = molecular target: T3, 1000006: catalytic domain of protein tyrosine phosphatase (2G59) (Homo sapiens, UniProt Q16827); experiment: Thermal shift (thermal melt) assay, Sypro orange; assay type: binding, H. sapiens; settings: Table S6; known binders of 1000001 tested on 1000006; in °C (unit assumed)
# T3 construct: the catalytic domain of PTP from H. sapiens (PDB ID: 2G59) (1000006); New York structural genomics consortium (gift)
# T3 sequence (Q16827 938-1195 limits assumed): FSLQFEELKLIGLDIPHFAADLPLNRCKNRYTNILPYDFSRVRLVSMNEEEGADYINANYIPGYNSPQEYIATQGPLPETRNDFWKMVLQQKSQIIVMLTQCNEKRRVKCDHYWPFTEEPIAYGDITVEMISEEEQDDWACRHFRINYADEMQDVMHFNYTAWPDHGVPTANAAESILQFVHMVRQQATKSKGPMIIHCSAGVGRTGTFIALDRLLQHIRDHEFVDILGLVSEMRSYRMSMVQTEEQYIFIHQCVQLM
# Experimental: as §1, §2, §3, §4, §5, §6, §7, §8
# [9] = molecular target: E. coli dihydrofolate reductase (DHFR) (Escherichia coli, UniProt P0ABQ4); experiment: biochemical; assay type: binding; settings: Table S3
# E. coli dihydrofolate reductase (DHFR), sequence (P0ABQ4 whole entry): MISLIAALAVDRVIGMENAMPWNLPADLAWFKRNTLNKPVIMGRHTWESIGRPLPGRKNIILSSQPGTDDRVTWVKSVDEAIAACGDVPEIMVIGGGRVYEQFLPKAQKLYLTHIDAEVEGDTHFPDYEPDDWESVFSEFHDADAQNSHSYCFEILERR
# Experimental: as §1, with “The dye was excited at 465 nm and emission recorded at 580 nm using the instrument’s filters. A heating ramp of 1°C/min from 25°C to 74°C was used, and one data point acquired for each degree increment.” left out
# as §10, §3, §4, §5, §6, §7, §8
# [10] = Table S4, TrpRS, computed from the thermal shifts obtained, read-out: KD (Approx)
# [11] = approximate, computed from the thermal shift, read-out: KD
smiles,measurement,setting,value
Nc1ccn([C@@H]2O[C@H](CO)[C@@H](O)[C@@H]2O)c(=O)n1 [NSC 63878],Kd,[1],183 µM
"CN(Cc1cnc2nc(N)nc(N)c2n1)c1ccc(C(=O)N[C@@H](CCC(=O)O)C(=O)O)cc1 [NSC 740, methotrexate]",MIC,"[2]; Enterococcus faecium, ATCC700221",500 mg/L
same,VREF (MIC),[2]; Table S3,500 mg/L
same,IC50,"[3]; Homo sapiens, HCT-116, inhibitory concentration for 50% growth inhibition, read-out: HCT-116 (IC-50)",0.048 mg/L
NC(=O)c1cc2c3ccccc3ccn2c1-c1ccccc1 [NSC 93427],"Q (quality score of melting curve, ΔFmelt/ΔFtotal)",[4],0.05
same,Kd,"[4]; listed as 93427, read-out: KD (Approx)",1.38 µM
same,Kd,"[4]; listed as NSC93427, read-out: KD (Approx)",~1.4 µM
same,Kd,[4]; read-out: KD,1.38 µM
same,ΔTm,[4]; listed as 93427,14.86 °C
same,ΔTm,[4]; listed as NSC93427,~ 15 °C
COc1ccc(-c2cc3ccccc3[nH]2)cc1 [NSC 27032],"Q (quality score of melting curve, ΔFmelt/ΔFtotal)",[5],1.0
same,Kd,[5]; read-out: KD,48.5 µM
same,Kd,[5]; read-out: KD (Approx),48.5 µM
same,ΔTm,"[5]; thermal shift, 1 mM ligand, 10 μM protein",2.95 °C
Oc1cccc2nc3ccccc3nc12 [NSC 88882],Kd,"[6]; Table S4, protein 1000001, computed from the thermal shifts obtained, read-out: KD (Approx)",~1.47 µM
same,ΔTm,"[6]; Table S4, protein 1000001",9.98
same,Q (quality score),"[6]; Table S4, protein 1000001, ratio ΔFmelt/ΔFtotal",0.8
same,ΔTm,"[6]; Table S6, 1000001, known binders of 1000001",9.79
same,Kd,[7]; [10],~3.83 µM
same,ΔTm,"[7]; Table S4, TrpRS",12.07
same,Q (quality score),"[7]; Table S4, TrpRS",0.6
same,Kd,[7]; [11],~3.8 µM
same,HCT-116 (IC-50),[3]; Table S4,4.44
same,HCT-116 (IC-50),[3]; inhibitory concentration for 50% growth inhibition,4.44 µg/mL
same,ΔTm,[8],4.39
Nc1ccc(NC(=O)c2ccc(C(=O)Nc3ccc(N)cc3)cc2)cc1 [NSC 55152],Kd,[7]; [10],~39.6 µM
same,ΔTm,"[7]; Table S4, TrpRS",6.17
same,Q (quality score),"[7]; Table S4, TrpRS",0.95
same,Kd,[7]; [11],39.6 µM
same,Kd,"[9]; computed from the thermal shifts obtained, read-out: KD (Approx)",~73.8 µM
same,Q (quality score),[9]; ratio ΔFmelt/ΔFtotal of the melting curve,0.2
same,ΔTm,"[9]; thermal shift, in °C (unit assumed)",5.89
Cc1nc2c(O)cccc2cc1CO [NSC 227309],"Q (quality score of melting curve, ΔFmelt/ΔFtotal)",[1],0.8
same,ΔTm,"[1]; Table S5, 1 mM ligand",0.64 °C
same,Kd,[1],371 µM
